Six compounds from ChEMBL document CHEMBL5029160, “An Activity-Based Probe for Cathepsin K Imaging with Excellent Potency and Selectivity” (J Med Chem, 2021) can be followed below.

Calls of active or inactive are those of the source. No cut-off for these calls is given here.

The target in series [1] is Cathepsin B (Homo sapiens) (UniProt P07858). Description: Inhibition of human cathepsin B assessed as residual activity using Z-Arg-Arg-pNA as substrate incubated for 60 mins by fluorometric assay. Details: concentration or dose not given beside the values.
Series [2] addresses Procathepsin L (Homo sapiens) (UniProt P07711). Description: Inhibition of human cathepsin L assessed as residual activity using Z-Phe-Arg-pNA as substrate incubated for 60 mins by fluorometric assay. Details: concentration or dose not given beside the values.
Series [3] has as its target Cathepsin S (Homo sapiens) (UniProt P25774). Description: Inhibition of human cathepsin S assessed as ratio of Kinact/Ki using Z-Phe-Val-Arg-pNA as substrate incubated for 60 mins by fluorometric assay.
Series [4] addresses T1, Cathepsin K (Homo sapiens) (UniProt P43235).
T1 sequence (whole entry): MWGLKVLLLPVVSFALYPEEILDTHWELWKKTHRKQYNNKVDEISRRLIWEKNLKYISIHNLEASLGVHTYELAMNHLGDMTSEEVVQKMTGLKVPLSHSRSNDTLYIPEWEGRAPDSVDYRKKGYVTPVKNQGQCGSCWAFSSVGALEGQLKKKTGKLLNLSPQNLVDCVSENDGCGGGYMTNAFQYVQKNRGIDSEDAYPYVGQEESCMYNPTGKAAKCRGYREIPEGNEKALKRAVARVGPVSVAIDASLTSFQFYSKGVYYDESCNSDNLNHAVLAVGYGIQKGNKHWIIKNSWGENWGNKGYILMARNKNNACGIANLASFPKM
Description: Inhibition of human cathepsin K assessed as ratio of Kinact/Ki using Z-Phe-Arg-pNA as substrate incubated for 60 mins by fluorometric assay.

For series [5], the target named is T1, Cathepsin K (Homo sapiens). Description: Binding affinity to Cathepsin K in human U2OS cells at 1 uM measured after 4 hrs by SDS-PAGE. The class given is cell-based.
Series [6] concerns the target T1, Cathepsin K (Homo sapiens). Description: Binding affinity to Cathepsin K in human U2OS cells at 1 uM pretreated with E-64d for 1 hr followed by compound addition and measured after 24 hrs by SDS-PAGE. The class given is cell-based.
The target in series [7] is T1, Cathepsin K (Homo sapiens). The series can be described thus: Inhibition of recombinant human Cathepsin K at 5 uM using Z-Phe-Arg-pNA as substrate incubated for 1 hr in presence of HEK293 cell lysate by SDS-PAGE. In kind it is subcellular.
In series [8] the target is T1, Cathepsin K (Homo sapiens). Description: Binding affinity to Cathepsin K in human U2OS cells at 1 uM measured after 24 hrs by SDS-PAGE. The class given is cell-based.
Series [9] is described as follows: Drug uptake in human U2OS cells […] at 1 uM after 16 hrs by LysoTracker staining based fluorescence microscopy. In kind it is ADME, subcellular.
In series [10] the target is T1, Cathepsin K (Homo sapiens). The series can be described thus: Binding affinity to Cathepsin K in human U2OS cells at 1 uM measured after 16 hrs by SDS-PAGE. The class given is cell-based.
The target of series [11] is T1, Cathepsin K (Homo sapiens). Description: Binding affinity to recombinant human Cathepsin K at 5 uM pretreated with E64/K11777 pan-cathepsin inhibitor s for 15 mins followed by compound addition and measured after 1 hr by SDS-PAGE. Conditions: time 75.0 min.
In series [12] the target is Procathepsin L (Homo sapiens) (UniProt P07711). Description: Inhibition of human cathepsin L assessed as ratio of Kinact/Ki using Z-Phe-Arg-pNA as substrate incubated for 60 mins by fluorometric assay.
Chain of Procathepsin L (Homo sapiens) (P07711 114-333 limits assumed): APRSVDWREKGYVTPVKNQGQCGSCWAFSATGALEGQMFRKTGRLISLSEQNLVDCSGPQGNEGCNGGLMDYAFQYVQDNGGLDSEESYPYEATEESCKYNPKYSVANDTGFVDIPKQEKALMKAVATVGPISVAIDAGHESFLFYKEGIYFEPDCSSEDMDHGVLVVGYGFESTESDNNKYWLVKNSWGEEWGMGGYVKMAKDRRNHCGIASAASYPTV
For series [13], the target named is Cathepsin S (Homo sapiens) (UniProt P25774). Description: Inhibition of human cathepsin S assessed as residual activity using Z-Phe-Val-Arg-pNA as substrate incubated for 60 mins by fluorometric assay.
Chain of Cathepsin S (Homo sapiens) (P25774 115-331 limits assumed): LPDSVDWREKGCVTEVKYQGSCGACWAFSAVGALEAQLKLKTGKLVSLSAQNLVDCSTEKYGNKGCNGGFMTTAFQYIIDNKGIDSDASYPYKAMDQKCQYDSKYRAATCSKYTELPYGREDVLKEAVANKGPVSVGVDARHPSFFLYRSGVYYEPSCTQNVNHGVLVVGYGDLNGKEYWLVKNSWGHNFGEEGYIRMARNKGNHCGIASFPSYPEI
Series [14] addresses Cathepsin B (Homo sapiens) (UniProt P07858). Description: Inhibition of human cathepsin B assessed as ratio of Kinact/Ki using Z-Arg-Arg-pNA as substrate incubated for 60 mins by fluorometric assay.

For the compound `CCCC[C@H](NC(=O)CCCC[N+]1=C(/C=C/C=C/C=C2/N(C)c3ccccc3C2(C)C)C(C)(C)c2ccccc21)C(=O)N[C@@H](CC(C)C)C(=O)NC/C=C/C(=O)N(Cc1ccccc1)Cc1ccccc1`, the Activity in [1] came out at 96%; in series [2], 91%. The Ratio in series [3] is 556 M⁻¹ s⁻¹; in series [4], 17900 M⁻¹ s⁻¹.
`CCCC[C@H](NC(=O)OC(C)(C)C)C(=O)N[C@@H](CC(C)C)C(=O)NC/C=C/C(=O)N(Cc1ccccc1)Cc1ccccc1`: the Activity in series [1] amounted to 91%; in series [2], 76%. The Ratio in [3] is 485 M⁻¹ s⁻¹; in [4] it was 6440 M⁻¹ s⁻¹.
Take `CC(C)C[C@H](NC(=O)CCCC[N+]1=C(/C=C/C=C/C=C2/N(C)c3ccccc3C2(C)C)C(C)(C)c2ccccc21)C(=O)NC/C=C/C(=O)N(Cc1ccccc1)Cc1ccccc1.[Cl-]`: the outcome in [5], in series [8] and in [10] was Active. The Activity in [1] was determined as 96%; in series [2], 89%. For the same compound, the outcome in series [6] and in series [11] was inactive. In addition, the inhibition entry in series [7] is “Active”. Moreover, the Drug uptake result in series [9] is reported as “Active”. In addition, the Ratio came to 505 M⁻¹ s⁻¹ in series [3] and 35300 M⁻¹ s⁻¹ in [4].
On to `CC(C)C[C@H](NC(=O)c1ccc(-c2cc3cc4c5c(c3oc2=O)CCCN5CCC4)cc1)C(=O)NC/C=C/C(=O)N(Cc1ccccc1)Cc1ccccc1`, for which the Ratio is 1510 M⁻¹ s⁻¹ in series [3] and 84200 M⁻¹ s⁻¹ in [4].
As for `CC(C)C[C@H](NC(=O)c1cc2cc3c4c(c2oc1=O)CCCN4CCC3)C(=O)NC/C=C/C(=O)N(Cc1ccccc1)Cc1ccccc1`, the Activity is 96% in [1], 80% in [13] and 89% in series [2]. Besides, the results for the Ratio in series [12], in series [14] and in series [4] were 2820 M⁻¹ s⁻¹, 365 M⁻¹ s⁻¹ and 9550 M⁻¹ s⁻¹, respectively.
As for `CC(C)C[C@H](NC(=O)OC(C)(C)C)C(=O)NC/C=C/C(=O)N(Cc1ccccc1)Cc1ccccc1`, the Activity in series [1] turned out to be 91%; in series [2] it was 83%. Also, the results for the Ratio in series [3] and in series [4] were 291 M⁻¹ s⁻¹ and 10600 M⁻¹ s⁻¹, respectively.
